Test results: patent US20040116420A1 (priority 2001, published 2004)

Legend:
HSV-1 protease = target: T1, HSV-1 protease (Human herpesvirus 1, UniProt P10210); experiment: Enzymatic assay for HSV-1 protease (assembly) inhibitor, fluorescence polarization; type: biochemical; details: read-out: HSV-1 Enzyme inhibition IC50
T1 construct: 6xHis (N); made in house; host or cells: baculovirus expression system
How it was run: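 Fluorescence polarization read-out: after avidin stop, cleavage of a biotinylated DTAF-labelled release-site peptide by recombinant N-His6 HSV-1 protease was compared with no-inhibitor wells. Enzyme and compound were preincubated 30 min, then substrate reacted 60 min, all at room temperature, pH 7.4 citrate buffer with TCEP.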

HSV-1 = experiment: Antiviral activity, HSV-1 in Vero cells, plaque method; type: cell-based; details: Human alphaherpesvirus 1, 20 hours, 90% inhibition of plaque formation
How it was run: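 This is a virus-yield read-out. The culture medium was frozen at −80° C and thawed, and the plaques it formed were counted. It came from Vero monolayers infected with 50,000 pfu HSV-1 and then exposed to the compound for 20 h at 37° C. EC90 is the concentration inhibiting 90% of plaque formation relative to the untreated infected control.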

Vero cells = experiment: Cytotoxicity, Vero cells, Alamar Blue; type: cell-based; details: 25 μM, 20 hours
Description: An Assay Method for Cytotoxicity
The Vero cells were sown on a 96-well plate and then cultured overnight. The culture supernatant was removed, and 200 μl of 2% FBS-DMEM comprising 25 μM of the test compound was added. In this case, a substance to which 2% FBS-DMEM not comprising any test compound had been added was determined as a control. These cells were incubated in the presence of 5% CO2 at 37° C. for 20 hours. Alamar Blue (20 μl) was added to the cells, and cells were incubated for about 6 hours until the color of the control changed. The ratio of the absorbance was assayed using a microplate reader for absorption, and the value relative to the control was determined to be the ratio of living cells.

T1 sequence (P10210 1-247): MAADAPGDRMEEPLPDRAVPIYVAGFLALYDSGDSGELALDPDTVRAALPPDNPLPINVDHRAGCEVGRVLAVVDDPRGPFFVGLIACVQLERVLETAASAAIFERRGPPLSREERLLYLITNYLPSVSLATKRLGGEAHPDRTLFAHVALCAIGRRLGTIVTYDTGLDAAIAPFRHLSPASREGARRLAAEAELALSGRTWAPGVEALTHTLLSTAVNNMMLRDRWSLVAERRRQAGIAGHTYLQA

## Cc1c(NC(=O)OC(C)(C)C)ccc2nc(N[C@H](C(=O)NCc3cccnc3)C(C)(C)C)oc(=O)c12 [Compound No.33, (2-{2,2-dimethyl-1S-[(pyridin-3-ylmethyl)-carbamoyl]-propylamino}-5-methyl-4-oxo-4H-benzo[d][1,3]oxazin-6-yl)-carbamic acid tert-butyl ester]
HSV-1 protease
  IC50: 10.1 µM
HSV-1
  EC90: 13 µM
Vero cells
  Cell viability (% of control): 105.0%

## Cc1c(NC(=O)OC(C)(C)C)ccc2nc(NC(C)(C)C(=O)NCc3ccncc3)oc(=O)c12 [Compound No.34, (5-Methyl-2-{1-methyl-1-[(pyridin-4-ylmethyl)-carbamoyl]-ethylamino}-4-oxo-4H-benzo[d][1,3]oxazin-6-yl)-carbamic acid tert-butyl ester]
HSV-1 protease
  IC50: 1.6 µM
HSV-1
  EC90: > 25 µM
Vero cells
  Cell viability (% of control): 102.0%

## Cc1c(NC(=O)OC(C)(C)C)ccc2nc(NC(C)(C)C(=O)NCCc3ccccn3)oc(=O)c12 [Compound No.35, {5-Methyl-2-[1-methyl-1-(2-pyridin-2-ylethylcarbamoyl)-ethylamino]-4-oxo-4H-benzo[d][1,3]oxazin-6-yl}-carbamic acid tert-butyl ester]
HSV-1 protease
  IC50: 1.6 µM
HSV-1
  EC90: > 25 µM
Vero cells
  Cell viability (% of control): 110.0%

## Cc1c(NC(=O)OC(C)(C)C)ccc2nc(N[C@@H](CC(C)C)C(=O)NCc3ccccn3)oc(=O)c12 [Compound No.36, (5-Methyl-2-{3-methyl-1S-[(pyridin-2-ylmethyl)-carbamoyl]-butylamino}-4-oxo-4H-benzo[d][1,3]oxazin-6-yl)-carbamic acid tert-butyl ester]
HSV-1 protease
  IC50: 5.8 µM
HSV-1
  EC90: 21.5 µM
Vero cells
  Cell viability (% of control): 110.0%

## Cc1c(NC(=O)OC(C)(C)C)ccc2nc(N[C@@H](CC(C)C)C(=O)NCc3cccnc3)oc(=O)c12 [Compound No.37, (5-Methyl-2-{3-methyl-1S-[(pyridin-3-ylmethyl)-carbamoyl]-butylamino}-4-oxo-4H-benzo[d][1,3]oxazin-6-yl)-carbamic acid tert-butyl ester]
HSV-1 protease
  IC50: 4.6 µM
HSV-1
  EC90: 15 µM
Vero cells
  Cell viability (% of control): 105.0%

## Cc1c(NC(=O)OC(C)(C)C)ccc2nc(N[C@@H](CC(C)C)C(=O)NCc3ccncc3)oc(=O)c12 [Compound No.38, (5-Methyl-2-{3-methyl-1S-[(pyridin-4-ylmethyl)-carbamoyl]-butylamino}-4-oxo-4H-benzo[d][1,3]oxazin-6-yl)-carbamic acid tert-butyl ester]
HSV-1 protease
  IC50: 10.1 µM
HSV-1
  EC90: > 25 µM
Vero cells
  Cell viability (% of control): 105.0%

## Cc1c(NC(=O)OC(C)(C)C)ccc2nc(N[C@@H](CCc3ccccc3)C(=O)NCc3ccccn3)oc(=O)c12 [Compound No.39, (5-Methyl-4-oxo-2-{3-phenyl-1S-[(pyridin-2-ylmethyl)-carbamoyl]-propylamino}-4H-benzo[d][1,3]oxazin-6-yl)-carbamic acid tert-butyl ester]
HSV-1 protease
  IC50: 1.5 µM
HSV-1
  EC90: 12.4 µM
Vero cells
  Cell viability (% of control): 90.1%

## Cc1c(NC(=O)OC(C)(C)C)ccc2nc(N[C@@H](CCc3ccccc3)C(=O)NCc3cccnc3)oc(=O)c12 [Compound No.40, (5-Methyl-4-oxo-2-{3-phenyl-1S-[(pyridin-3-ylmethyl)-carbamoyl]-propylamino}-4H-benzo[d][1,3]oxazin-6-yl)-carbamic acid tert-butyl ester]
HSV-1 protease
  IC50: > 20 µM
HSV-1
  EC90: > 25 µM
Vero cells
  Cell viability (% of control): 100.0%

## Cc1c(NC(=O)OC(C)(C)C)ccc2nc(N[C@@H](CCc3ccccc3)C(=O)NCc3ccncc3)oc(=O)c12 [Compound No.41, (5-Methyl-4-oxo-2-{3-phenyl-1S-[(pyridin-4-ylmethyl)-carbamoyl]-propylamino}-4H-benzo[d][1,3]oxazin-6-yl)-carbamic acid tert-butyl ester]
HSV-1 protease
  IC50: 5.6 µM
HSV-1
  EC90: > 25 µM
Vero cells
  Cell viability (% of control): 101.0%

## Cc1c(NC(=O)OC(C)(C)C)ccc2nc(N[C@@H](CCc3ccccc3)C(=O)NCCc3ccccn3)oc(=O)c12 [Compound No.42, {5-Methyl-4-oxo-2-[3-phenyl-1S-(2-pyridin-2-yl-ethylcarbamoyl)-propylamino]-4H-benzo[d][1,3]oxazin-6-yl}-carbamic acid tert-butyl ester]
HSV-1 protease
  IC50: 1 µM
HSV-1
  EC90: 10.7 µM
Vero cells
  Cell viability (% of control): 83.0%

## Cc1c(NC(=O)OC(C)(C)C)ccc2nc(N[C@@H](C)C(=O)N(C)CCc3ccccn3)oc(=O)c12 [Compound No.43, (5-Methyl-2-{1S-[methyl-(2-pyridin-2-yl-ethyl)-carbamoyl]-ethylamino}-4-oxo-4H-benzo[d][1,3]oxazin-6-yl)-carbamic acid tert-butyl ester]
HSV-1 protease
  IC50: 0.7 µM
HSV-1
  EC90: 9.1 µM
Vero cells
  Cell viability (% of control): 104.0%

## Cc1c(NC(=O)OC(C)(C)C)ccc2nc(N[C@H](C(=O)N(C)CCc3ccccn3)C(C)(C)C)oc(=O)c12 [Compound No.44, (2-{2,2-dimethyl-1S-[methyl-(2-pyridin-2-yl-ethyl)-carbamoyl]-propylamino}-5-methyl-4-oxo-4H-benzo[d][1,3]oxazin-6-yl)-carbamic acid tert-butyl ester]
HSV-1 protease
  IC50: > 20 µM
HSV-1
  EC90: 5.9 µM
Vero cells
  Cell viability (% of control): 66.2%

## Cc1c(NC(=O)OC(C)(C)C)ccc2nc(N[C@H](C(=O)N(C)CCc3ccccn3)C(C)C)oc(=O)c12 [Compound No.45, (5-Methyl-2-{2-methyl-1S-[methyl-(2-pyridin-2-yl-ethyl)-carbamoyl]-propylamino}-4-oxo-4H-benzo[d][1,3]oxazin-6-yl)-carbamic acid tert-butyl ester]
HSV-1 protease
  IC50: 1.7 µM
HSV-1
  EC90: 6.6 µM
Vero cells
  Cell viability (% of control): 107.0%

## Cc1c(NC(=O)OC(C)(C)C)ccc2nc(N[C@@H](CC(C)C)C(=O)N(C)CCc3ccccn3)oc(=O)c12 [Compound No.46, (5-Methyl-2-{3-methyl-1S-[methyl-(2-pyridin-2-yl-ethyl)-carbamoyl]-butylamino}-4-oxo-4H-benzo[d][1,3]oxazin-6-yl)-carbamic acid tert-butyl ester]
HSV-1 protease
  IC50: 1.7 µM
HSV-1
  EC90: 4.9 µM
Vero cells
  Cell viability (% of control): 80.1%

## Cc1c(NC(=O)OC(C)(C)C)ccc2nc(N[C@@H](CC3CCCCC3)C(=O)N(C)CCc3ccccn3)oc(=O)c12 [Compound No.47, (2-{2-cyclohexyl-1S-[methyl-(2-pyridin-2-yl-ethyl)-carbamoyl]-ethylamino}-5-methyl-4-oxo-4H-benzo[d][1,3]oxazin-6-yl)-carbamic acid tert-butyl ester]
HSV-1 protease
  IC50: 2.9 µM
HSV-1
  EC90: < 3.2 µM
Vero cells
  Cell viability (% of control): 36.7%

## Cc1c(NC(=O)OC(C)(C)C)ccc2nc(N[C@@H](CCc3ccccc3)C(=O)N(C)CCc3ccccn3)oc(=O)c12 [Compound No.48, (5-Methyl-2-{1S-[methyl-(2-pyridin-2-yl-ethyl)-carbamoyl]-3-phenyl-propylamino}-4-oxo-4H-benzo[d][1,3]oxazin-6-yl)-carbamic acid tert-butyl ester]
HSV-1 protease
  IC50: 1.2 µM
HSV-1
  EC90: 3.7 µM
Vero cells
  Cell viability (% of control): 44.2%

## Cc1c(NC(=O)OC(C)(C)C)ccc2nc(N[C@@H](Cc3ccccc3)C(=O)N(C)CCc3ccncc3)oc(=O)c12 [Compound No.49, (5-Methyl-2-{1S-[methyl-(2-pyridin-4-yl-ethyl)-carbamoyl]-2-phenyl-ethylamino}-4-oxo-4H-benzo[d][1,3]oxazin-6-yl)-carbamic acid tert-butyl ester]
HSV-1 protease
  IC50: 0.9 µM
HSV-1
  EC90: < 3.2 µM
Vero cells
  Cell viability (% of control): 76.0%

## Cc1c(NC(=O)OC(C)(C)C)ccc2nc(N[C@@H](C)C(=O)N(C)CCc3ccncc3)oc(=O)c12 [Compound No.50, (5-Methyl-2-{1S-[methyl-(2-pyridin-4-yl-ethyl)-carbamoyl]-ethylamino}-4-oxo-4H-benzo[d][1,3]oxazin-6-yl)-carbamic acid tert-butyl ester]
HSV-1 protease
  IC50: 0.9 µM
HSV-1
  EC90: < 3.2 µM
Vero cells
  Cell viability (% of control): 106.0%

## Cc1c(NC(=O)OC(C)(C)C)ccc2nc(NC(C)(C)C(=O)N(C)CCc3ccncc3)oc(=O)c12 [Compound No.51, (5-Methyl-2-{1-methyl-1-[methyl-(2-pyridin-4-yl-ethyl)-carbamoyl]-ethylamino}-4-oxo-4H-benzo[d][1,3]oxazin-6-yl)-carbamic acid tert-butyl ester]
HSV-1 protease
  IC50: 0.6 µM
HSV-1
  EC90: 9.3 µM
Vero cells
  Cell viability (% of control): 106.0%

## Cc1c(NC(=O)OC(C)(C)C)ccc2nc(N[C@H](C(=O)N(C)CCc3ccncc3)C(C)(C)C)oc(=O)c12 [Compound No.52, (2-{2,2-Dimethyl-1S-[methyl-(2-pyridin-4-yl-ethyl)-carbamoyl]-propylamino}-5-methyl-4-oxo-4H-benzo[d][1,3]oxazin-6-yl)-carbamic acid tert-butyl ester]
HSV-1 protease
  IC50: 49 µM
HSV-1
  EC90: 6 µM
Vero cells
  Cell viability (% of control): 64.5%

## Cc1c(NC(=O)OC(C)(C)C)ccc2nc(N[C@H](C(=O)N(C)CCc3ccncc3)C(C)C)oc(=O)c12 [Compound No.53, (5-Methyl-2-{2-methyl-1S-[methyl-(2-pyridin-4-yl-ethyl)-carbamoyl]-propylamino}-4-oxo-4H-benzo[d][1,3]oxazin-6-yl)-carbamic acid tert-butyl ester]
HSV-1 protease
  IC50: 2.7 µM
HSV-1
  EC90: 6.1 µM
Vero cells
  Cell viability (% of control): 106.0%
